Test results published in patent publication US10000501B2, “Inhibitors of HIF prolyl hydroxylase” (MERCK SHARP & DOHME CORP., priority 2014, dated 2018).

Biological target: T1, human HIF-PHD2 (Homo sapiens, UniProt Q9GZT9)
T1 construct: FLAG-tagged full length PHD2 expressed in and purified from baculovirus-infected Sf9 cells; FLAG; made in house; host or cells: baculovirus-infected Sf9 cells
Assay: HIF-PHD2 inhibition assay (hydroxylation of HIF-1α peptide, time resolved fluorescence)
Type: biochemical
Conditions: FLAG-tagged full length PHD2; 0.2 μM 2-oxoglutarate, 0.5 μM HIF-1α peptide
Protocol: To each well of a 384-well plate, 1 μL of test compounds in DMSO (final concentration ranging from 0.3 nM to 10 uM) were added into 20 μl of assay buffer (50 mM Tris pH 7.4/0.01% Tween-20/0.1 mg/ml bovine serum albumin/10 μM ferrous sulfate/1 mM sodium ascorbate/20 μg/ml catalase) containing 0.15 μg/ml FLAG-tagged full length PHD2 expressed in and purified from baculovirus-infected Sf9 cells. […] Purif.

T1 sequence (Q9GZT9 whole entry): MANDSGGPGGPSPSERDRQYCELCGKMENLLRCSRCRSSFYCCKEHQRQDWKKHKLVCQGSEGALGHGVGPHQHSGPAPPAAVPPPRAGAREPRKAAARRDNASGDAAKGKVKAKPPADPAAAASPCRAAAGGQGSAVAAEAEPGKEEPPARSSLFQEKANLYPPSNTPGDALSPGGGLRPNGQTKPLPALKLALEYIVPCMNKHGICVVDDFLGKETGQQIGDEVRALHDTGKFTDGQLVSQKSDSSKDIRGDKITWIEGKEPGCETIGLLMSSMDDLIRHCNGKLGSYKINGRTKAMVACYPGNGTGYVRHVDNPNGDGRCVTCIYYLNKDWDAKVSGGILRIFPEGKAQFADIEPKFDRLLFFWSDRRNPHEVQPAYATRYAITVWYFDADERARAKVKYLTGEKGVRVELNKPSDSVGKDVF

| Structure (SMILES) | IC50 |
| --- | --- |
| CC(C)c1ccc(Cn2c3c(c(O)c(C(=O)NCC(=O)O)c2=O)CCOC3)cc1 [Example 39, 2-(4-hydroxy-1-(4-isopropylbenzyl)-2-oxo-2,5,6,8-tetrahydro-1H-pyrano[3,4-b]pyridine-3-carboxamido)acetic acid] | 42.2 nM |
| CS(=O)(=O)c1ccc(Cn2c3c(c(O)c(C(=O)NCC(=O)O)c2=O)CCOC3)cc1 [Example 41, 2-(4-hydroxy-1-(4-(methylsulfonyl)benzyl)-2-oxo-2,5,6,8-tetrahydro-1H-pyrano[3,4-b]pyridine-3-carboxamido)acetic acid] | 28.7 nM |
| O=C(O)CNC(=O)c1c(O)c2c(n(Cc3cc(F)c(F)cc3F)c1=O)COCC2 [Example 43, 2-(4-hydroxy-2-oxo-1-(2,4,5-trifluorobenzyl)-2,5,6,8-tetrahydro-1H-pyrano[3,4-b]pyridine-3-carboxamido)acetic acid] | 26.5 nM |
| Cc1cc(Cn2c3c(c(O)c(C(=O)NCC(=O)O)c2=O)CCOC3)ccc1C#N [Example 45, 2-(1-(4-cyano-3-methylbenzyl)-4-hydroxy-2-oxo-2,5,6,8-tetrahydro-1H-pyrano[3,4-b]pyridine-3-carboxamido)acetic acid] | 90.1 nM |
| O=C(O)CNC(=O)c1c(O)c2c(n(Cc3ncc(C(F)(F)F)cn3)c1=O)COCC2 [Example 46, 2-(4-hydroxy-2-oxo-1-((5-(trifluoromethyl)pyrimidin-2-yl)methyl)-2,5,6,8-tetrahydro-1H-pyrano[3,4-b]pyridine-3-carboxamido)acetic acid] | 90.1 nM |
| O=C(O)CNC(=O)c1c(O)c2c(n(Cc3ccc(OC(F)F)cc3)c1=O)COCC2 [Example 49, 2-(1-(4-(difluoromethoxy)benzyl)-4-hydroxy-2-oxo-2,5,6,8-tetrahydro-1H-pyrano[3,4-b]pyridine-3-carboxamido)acetic acid] | 28.6 nM |
| Cn1ccc(Cn2c3c(c(O)c(C(=O)NCC(=O)O)c2=O)CCOC3)n1 [Example 50, 2-(4-hydroxy-1-((1-methyl-1H-pyrazol-3-yl)methyl)-2-oxo-2,5,6,8-tetrahydro-1H-pyrano[3,4-b]pyridine-3-carboxamido)acetic acid] | 55.1 nM |
| COc1ccc(Cn2c3c(c(O)c(C(=O)NCC(=O)O)c2=O)CCOC3)cc1 [Example 51, 2-(4-hydroxy-1-(4-methoxybenzyl)-2-oxo-2,5,6,8-tetrahydro-1H-pyrano[3,4-b]pyridine-3-carboxamido)acetic acid] | 30.2 nM |
| O=C(O)CNC(=O)c1c(O)c2c(n(Cc3ccc(F)cc3)c1=O)COCC2 [Example 53, 2-(1-(4-fluorobenzyl)-4-hydroxy-2-oxo-2,5,6,8-tetrahydro-1H-pyrano[3,4-b]pyridine-3-carboxamido)acetic acid] | 29.3 nM |
| O=C(O)CNC(=O)c1c(O)c2c(n(Cc3ccc(F)c(F)c3)c1=O)COCC2 [Example 54, 2-(1-(3,4-difluorobenzyl)-4-hydroxy-2-oxo-2,5,6,8-tetrahydro-1H-pyrano[3,4-b]pyridine-3-carboxamido)acetic acid] | 30.8 nM |
| CC(C)Oc1ccc(Cn2c3c(c(O)c(C(=O)NCC(=O)O)c2=O)CCOC3)cc1 [Example 56, 2-(4-hydroxy-1-(4-isopropoxybenzyl)-2-oxo-2,5,6,8-tetrahydro-1H-pyrano[3,4-b]pyridine-3-carboxamido)acetic acid] | 29.1 nM |
| N#Cc1cccc(Cn2c3c(c(O)c(C(=O)NCC(=O)O)c2=O)CCOC3)c1 [Example 57, 2-(1-(3-cyanobenzyl)-4-hydroxy-2-oxo-2,5,6,8-tetrahydro-1H-pyrano[3,4-b]pyridine-3-carboxamido)acetic acid] | 35.2 nM |
| O=C(O)CNC(=O)c1c(O)c2c(n(Cc3ccccc3Cl)c1=O)COCC2 [Example 58, 2-(1-(2-chlorobenzyl)-4-hydroxy-2-oxo-2,5,6,8-tetrahydro-1H-pyrano[3,4-b]pyridine-3-carboxamido)acetic acid] | 25.5 nM |
| O=C(O)CNC(=O)c1c(O)c2c(n(Cc3ccccn3)c1=O)COCC2 [Example 59, 2-(4-hydroxy-2-oxo-1-(pyridin-2-ylmethyl)-2,5,6,8-tetrahydro-1H-pyrano[3,4-b]pyridine-3-carboxamido)acetic acid] | 44.2 nM |
| O=C(O)CNC(=O)c1c(O)c2c(n(Cc3ccncc3)c1=O)COCC2 [Example 60, 2-(4-hydroxy-2-oxo-1-(pyridin-4-ylmethyl)-2,5,6,8-tetrahydro-1H-pyrano[3,4-b]pyridine-3-carboxamido)acetic acid] | 30.4 nM |
| O=C(O)CNC(=O)c1c(O)c2c(n(Cc3cncs3)c1=O)COCC2 [Example 62, 2-(4-hydroxy-2-oxo-1-(thiazol-5-ylmethyl)-2,5,6,8-tetrahydro-1H-pyrano[3,4-b]pyridine-3-carboxamido)acetic acid] | 44.1 nM |
| CC(C)(O)c1ccc(Cn2c3c(c(O)c(C(=O)NCC(=O)O)c2=O)CCOC3)cc1 [Example 63, 2-(4-Hydroxy-1-(4-(2-hydroxypropan-2-yl)benzyl)-2-oxo-2,5,6,8-tetrahydro-1H-pyrano[3,4-b]pyridine-3-carboxamido)acetic acid] | 67.4 nM |
| NC(=O)c1ccc(Cn2c3c(c(O)c(C(=O)NCC(=O)O)c2=O)CCOC3)cc1 [Example 64, 2-(1-(4-Carbamoylbenzyl)-4-hydroxy-2-oxo-2,5,6,8-tetrahydro-1H-pyrano[3,4-b]pyridine-3-carboxamido)acetic acid] | 30.6 nM |
| O=C(O)CNC(=O)c1c(O)c2c(n(Cc3ccc(-c4ccc(OC(F)(F)F)cc4)cc3)c1=O)COCC2 [Example 66, 2-(4-hydroxy-2-oxo-1-((4′-(trifluoromethoxy)-[1,1′-biphenyl]-4-yl)methyl)-2,5,6,8-tetrahydro-1H-pyrano[3,4-b]pyridine-3-carboxamido)acetic acid] | 28.8 nM |

Stronger by IC50, values ahead:

| IC50 | Structure (SMILES) |
| --- | --- |
| 24.1 nM | O=C(O)CNC(=O)c1c(O)c2c(n(Cc3ccc(OC(F)(F)F)cc3)c1=O)COCC2 [Example 52, 2-(4-hydroxy-2-oxo-1-(4-(trifluoromethoxy)benzyl)-2,5,6,8-tetrahydro-1H-pyrano[3,4-b]pyridine-3-carboxamido)acetic acid] |
| 23.6 nM | O=C(O)CNC(=O)c1c(O)c2c(n(Cc3ccc(-c4ccc(C(F)(F)F)cc4)cc3)c1=O)COCC2 [Example 65, 2-(4-Hydroxy-2-oxo-1-((4′-(trifluoromethyl)-[1,1′-biphenyl]-4-yl)methyl)-2,5,6,8-tetrahydro-1H-pyrano[3,4-b]pyridine-3-carboxamido)acetic acid] |
| 22.6 nM | N#Cc1ccc(Cn2c3c(c(O)c(C(=O)NCC(=O)O)c2=O)CCOC3)cc1F [Example 61, 2-(1-(4-cyano-3-fluorobenzyl)-4-hydroxy-2-oxo-2,5,6,8-tetrahydro-1H-pyrano[3,4-b]pyridine-3-carboxamido)acetic acid] |
| 21.8 nM | N#Cc1ccc(Cn2c3c(c(O)c(C(=O)NCC(=O)O)c2=O)CCOC3)cc1 [Example 40, 2-(1-(4-cyanobenzyl)-4-hydroxy-2-oxo-2,5,6,8-tetrahydro-1H-pyrano[3,4-b]pyridine-3-carboxamido)acetic acid] |
| 21.3 nM | CNC(=O)c1ccc(Cn2c3c(c(O)c(C(=O)NCC(=O)O)c2=O)CCOC3)cc1 [Example 55, 2-(4-hydroxy-1-(4-(methylcarbamoyl)benzyl)-2-oxo-2,5,6,8-tetrahydro-1H-pyrano[3,4-b]pyridine-3-carboxamido)acetic acid] |
| 19.9 nM | O=C(O)CNC(=O)c1c(O)c2c(n(Cc3ccc(C(F)(F)F)nc3)c1=O)COCC2 [Example 42, 2-(4-hydroxy-2-oxo-1-((6-(trifluoromethyl)pyridin-3-yl)methyl)-2,5,6,8-tetrahydro-1H-pyrano[3,4-b]pyridine-3-carboxamido)acetic acid] |
| 19.3 nM | O=C(O)CNC(=O)c1c(O)c2c(n(Cc3ccc(Cl)cc3F)c1=O)COCC2 [Example 47, 2-(1-(4-chloro-2-fluorobenzyl)-4-hydroxy-2-oxo-2,5,6,8-tetrahydro-1H-pyrano[3,4-b]pyridine-3-carboxamido)acetic acid] |
| 16.3 nM | N#Cc1ccc(-c2ccc(Cn3c4c(c(O)c(C(=O)NCC(=O)O)c3=O)CCOC4)cc2)cc1 [Example 69, 2-(1-((4′-cyano-[1,1′-biphenyl]-4-yl)methyl)-4-hydroxy-2-oxo-2,5,6,8-tetrahydro-1H-pyrano[3,4-b]pyridine-3-carboxamido)acetic acid] |
| 14.4 nM | N#Cc1ccc(Cn2c3c(c(O)c(C(=O)NCC(=O)O)c2=O)CCOC3)c(F)c1 [Example 44, 2-(1-(4-cyano-2-fluorobenzyl)-4-hydroxy-2-oxo-2,5,6,8-tetrahydro-1H-pyrano[3,4-b]pyridine-3-carboxamido)acetic acid] |
| 13.5 nM | O=C(O)CNC(=O)c1c(O)c2c(n(Cc3ccc(-c4ccc(Cl)cc4)cc3)c1=O)COCC2 [Example 67, 2-(1-((4′-chloro-[1,1′-biphenyl]-4-yl)methyl)-4-hydroxy-2-oxo-2,5,6,8-tetrahydro-1H-pyrano[3,4-b]pyridine-3-carboxamido)acetic acid] |
| 10.4 nM | CN1Cc2c(c(O)c(C(=O)NCC(=O)O)c(=O)n2Cc2ccc(C#N)cc2F)CC1=O [Example 70, 2-(1-(4-Cyano-2-fluorobenzyl)-4-hydroxy-7-methyl-2,6-dioxo-1,2,5,6,7,8-hexahydro-1,7-naphthyridine-3-carboxamido)acetic acid] |
| 8.9 nM | O=C(O)CNC(=O)c1c(O)c2c(n(Cc3nc4ccccc4s3)c1=O)COCC2 [Example 48, 2-(1-(benzo[d]thiazol-2-ylmethyl)-4-hydroxy-2-oxo-2,5,6,8-tetrahydro-1H-pyrano[3,4-b]pyridine-3-carboxamido)acetic acid] |
| 7.8 nM | NC(=O)c1ccc(-c2ccc(Cn3c4c(c(O)c(C(=O)NCC(=O)O)c3=O)CCOC4)cc2)cc1 [Example 68, 2-(1-((4′-carbamoyl-[1,1′-biphenyl]-4-yl)methyl)-4-hydroxy-2-oxo-2,5,6,8-tetrahydro-1H-pyrano[3,4-b]pyridine-3-carboxamido)acetic acid] |
